We go through 87 compounds from a melting point compilation (Tetko et al.; mined from patent text by program, amines drawn as free bases though some values may be those of a salt).

`Cc1ccc(C(=O)Nc2ccc(C)c(-c3nc(S(C)(=O)=O)nc4c3CNC(=O)N4c3c(F)cccc3F)c2)cc1F` came in with a melting point of over 270 °C.

Turning to `CCCCCCc1ccc(-c2ccc(C(=O)Oc3ccc(C(=O)O)c(Cl)c3)cc2)cc1`, the melting point was 164 to 166 °C.

In turn, `Cn1cncc1C(O)(c1ccc2c(c1)OCCO2)c1ccc2[nH]c(=O)nc(-c3cccc(Cl)c3)c2c1` (configuration not stated) showed a melting point of over 260 °C.

As to `COc1ccc(OC(=O)N2CCCC2=O)cc1`, the melting point fell in the range of 133 to 134 °C.

The compound `COc1ccc(N2CCN(c3c(C)c(C)c4c(c3C)CC(C)(CNC(C)=O)O4)CC2)cc1` (configuration not stated) had a melting point of 146 to 152 °C.

Regarding `CC1=C(CC2=NCCN2)CCc2ccccc21`, the melting point was 223 to 224 °C.

As to `Cc1ccc(OCC#CI)cn1`, the melting point was in the range of 155 to 157 °C.

The compound `CNC(=O)[C@@H](C[C@H](O)[C@H](CC1CCCCC1)NC(=O)OC(C)(C)C)C(C)(C)O` had a melting point of 174 to 175 °C.

With `O=C(Nc1cccc(F)c1)N1CCc2cc(S(=O)(=O)N3CCN(c4cccc(Cl)c4)CC3)ccc21`, the melting point is 208 to 210 °C.

In the case of `O=[N+]([O-])C=C1CCCN1C1=CC(CF)(CF)Oc2ccc(C(F)(F)C(F)(F)F)cc21`, the melting point is 195 to 197 °C.

The compound `CC(C)CC(C=CCC(N)=O)NC(=O)C1CCCN1C(=O)OCc1ccccc1` (configuration not stated) yielded a melting point of 140 to 142 °C.

For `O=C1c2ccccc2CN1C1CCN(c2ccc(C(OCc3ccncc3)c3ccccc3)cc2)CC1` (configuration not stated), the melting point fell in the range of 77 to 81 °C.

Compound `CCCN1CCC(C2=C(C#N)C(c3cccc4nonc34)c3c[nH]nc3N2)CC1` (configuration not stated) had a melting point of 246 °C.

As for `CC(C)N1C(=O)c2cncnc2N(C(=O)CN2CCN(C)CC2)c2ccccc21`, the melting point was in the range of 133 to 135 °C.

As to `COc1cccc(CN2CCN(C)CC2C2=NCCN2)c1` (configuration not stated), the melting point lay in the range of 78 to 80 °C.

Consider `C=CC[C@@H](N[S@](=O)C(C)(C)C)c1cc(F)cc(C#N)c1`, for which the melting point lay in the range of 38 to 40 °C.

Compound `O=Cc1ccc(CCc2ccc(C=O)cc2)cc1` came in with a melting point of 121 to 122 °C.

Compound `NCC1COc2cc(Cl)cc(-c3ccccc3F)c2N1` (configuration not stated) gave a melting point of 95 °C.

In turn, `CCOC(=O)c1c(-c2ccccc2)c2cc(Cl)ccc2n1CC#N` yielded a melting point of 119 to 120 °C.

`O=C(Nc1cccc(Br)n1)c1cc(-c2ccc(F)cc2)n(C2CCCCO2)n1` (configuration not stated): the melting point fell in the range of 151 to 152 °C.

As for `Cc1cc(=O)c2ccc(OCC(O)CCl)cc2o1` (configuration not stated), the melting point was 104 to 106 °C.

On to `CNC(=O)c1cccc(Nc2ncnc3[nH]cc(C(=O)c4cccc(F)c4)c23)c1`, for which the melting point was over 300 °C.

For the compound `O=C1Nc2ccccc2C12COc1ccc3nonc3c12` (configuration not stated), the melting point is over 220 °C.

As to `CCCNc1nc(C#N)c(C#N)nc1-c1ccc(C)cc1`, the melting point was in the range of 115 to 116 °C.

With `O=C(O)Cc1c(-c2ccco2)nn(-c2ccccc2)c1-c1ccco1`, the melting point is 199 to 202 °C.

In turn, `CC(C)n1c(/C=C/C(O)CC(O)CC(=O)OC(C)(C)C)c(-c2ccc(F)cc2)c2ncccc21` (configuration not stated) displayed a melting point of 62 to 65 °C.

The compound `Cc1nc2cccc(OCC(C)(C)C(=O)NCC(C)C)c2c(N)c1C(=O)O` showed a melting point of 176 to 179 °C.

In turn, `COc1cc(C)c2c(Oc3cccc(C(F)(F)F)c3)c(OC)cc(NC(C)CCC[N+](=O)[O-])c2n1` (configuration not stated) displayed a melting point of 84.8 to 85.1 °C.

Regarding `CC(C(=O)O)c1ccc2cc(OCC(=O)O)ccc2c1` (configuration not stated), the melting point is 185 to 188 °C.

In turn, `CC(=O)N1CCC(NC(=O)NC23CC4CC(CC(C4)C2)C3)CC1` registered a melting point of 202 to 204 °C.

The compound `CCOC(=O)Cc1c(C(=O)OCC)cnc2c(NC(=O)c3c(Cl)cccc3Cl)cccc12` gave a melting point of 159 °C.

As to `CCOC(=O)COc1cc2cc(C3CCCCC3)sc2c(Cl)c1Cl`, the melting point lay within 73 to 75 °C.

For `COC(=O)CCc1ccc(C(=O)CCl)cc1`, the melting point amounted to 90 °C.

In turn, `Cn1c(Cc2cccc(C(F)(F)F)c2)nc2c(-c3cccc(C(=O)O)c3)cccc21` showed a melting point of 175 to 177 °C.

Compound `CC(=O)OCC(=O)C1(O)CCC2C3CCC4=CC(=O)C=CC4(C)C3(F)C(O[Si](C)(C)C)CC21C` (configuration not stated) had a melting point of 203 to 204 °C.

Regarding `Cc1nc(-c2ccc(OC(C)C)c([N+](=O)[O-])c2)sc1C(=O)OC(C)C`, the melting point lay in the range of 91 to 92 °C.

In turn, `C(=C\c1cc(/C=C/c2ccccc2OCc2ccccn2)[nH]n1)/c1ccc2[nH]ccc2c1` had a melting point of 220 to 223 °C.

`O=C1Nc2ccccc2N(C(=O)N2CCCC(CCCN3CCCC3)C2)c2ncccc21` (configuration not stated): the melting point lay in the range of 174 to 176 °C.

The compound `CCCCCc1c(C(C)C)nc(C(C)C)c(CO)c1-c1ccc(F)c(F)c1` returned a melting point of 106 to 107 °C.

`O=[N+]([O-])c1ccc(C=Cc2ccccc2)cc1` came in with a melting point of 46 to 50 °C.

As to `COC(=O)c1cccc(C=Cc2cccc(C(=O)OC)c2)c1`, the melting point was in the range of 105 to 107 °C.

Turning to `OC[C@H](O)[C@@H](O)[C@H](O)[C@H](O)C=NN(Cc1ccccc1)c1ccccc1`, the melting point fell in the range of 124 to 128 °C.

Turning to `COC(=O)N(c1cc(C)ccc1C(=O)c1ccc(F)cc1)C(C)C`, the melting point was 92 to 94 °C.

For `CC(C)(C)NCC(O)COc1ccc(C=O)cc1` (configuration not stated), the melting point lay within 123 to 126 °C.

`CC(C)(C)NC(=O)C1CCC2C3CC=C4C=C(C#N)CCC4(C)C3CCC12C` (configuration not stated): the melting point was in the range of 198 to 200 °C.

Compound `COc1ccc(-c2cc(Nn3cnnc3)ccc2C#N)cc1` yielded a melting point of 176 to 177 °C.

The compound `CC1CC(=O)c2c(C(=O)O)c[nH]c2C1` (configuration not stated) showed a melting point of 210 to 211 °C.

`CC(=O)Nc1ncc2c(n1)-c1sc(NC(C)=O)nc1CC2` displayed a melting point of over 310 °C.

For `CC(C)(C)NC(=O)C(C)(C)N(OC(C)(C)C#N)C(C)(C)C`, the melting point fell in the range of 77 to 79 °C.

For the compound `N#Cc1ccc(C(=O)NCc2ccc(N3CC(C(=O)O)OC3=O)cc2)cc1` (configuration not stated), the melting point is 234 °C.

`Oc1ccc(-c2ccc(-c3ccc(O)cc3)c(-c3ccc(OCCN4CCCC4)cc3)n2)cc1` registered a melting point of 145 to 150 °C.

`O=[N+]([O-])c1ccccc1-c1ccc(CNc2nc(C(F)(F)F)nc3c2CCCC3)cc1` showed a melting point of 150 to 151 °C.

Consider `C[C@H](c1ccccc1)N1C(=O)N(C(=O)OC(C)(C)C)[C@@H]2C(=O)OC[C@@H]21`, for which the melting point fell in the range of 177 to 178 °C.

The compound `O=C(O)Cc1cn(C(=O)c2cncs2)c2ccc(Cl)cc12` had a melting point of 175 to 180 °C.

The compound `Cc1nc(=O)[nH]c2cc(Cl)c(NC(N)=O)cc12` displayed a melting point of over 310 °C.

Compound `COc1cc(OC)nc(-c2ccc(C)cc2)n1` came in with a melting point of 61 to 62 °C.

As to `Cn1c(=O)c(C(=O)NC2CCCCC2)c(O)c2ccccc21`, the melting point was 145 °C.

In turn, `CCNC(=S)Nc1nccs1` had a melting point of 135 to 136 °C.

Regarding `CCOC(=O)[C@](CC(=O)OC1CC(C)CCC1C(C)C)(NC(=O)OC(C)(C)C)C(N)=O` (some centres not stated), the melting point was determined as 176 °C.

With `CC(C)(CC(=O)O)CC(=O)N[C@H](Cc1ccc(-c2ccccc2)cc1)C(=O)NCCCCNc1ncccn1`, the melting point is 77 to 95 °C.

In the case of `Cc1nn(-c2ccccn2)c2nc3ccccc3c(N3CCOCC3)c12`, the melting point fell in the range of 203 to 205 °C.

With `CCN1CCCC1CNC(=O)c1cccc(N(C2CN(C(c3ccc(Cl)cc3)c3ccc(Cl)cc3)C2)S(C)(=O)=O)c1` (single isomer, unassigned; (+)), the melting point is 122 °C.

Turning to `O=c1ncc(Cl)cn1CC(O)CO` (configuration not stated), the melting point is 136 to 138 °C.

`CCOC(=O)C(=CNc1ncnc2ccc(NC(=O)CC(C)(C)C)cc12)C(=O)OCC` gave a melting point of 133 to 135 °C.

Compound `O=C(O)CNC(=O)COc1nc(F)c(Cl)cc1Cl` had a melting point of 155 to 157 °C.

In the case of `Cc1cc(-c2nnc3c4ccccc4c(OCc4ncnn4C)nn23)no1`, the melting point is 256 to 258 °C.

Compound `OC1(CCc2ccccc2)CCOCC1` registered a melting point of 74 to 75 °C.

`Cc1c(NC(=O)Nc2ccc(-n3nc(C(F)(F)F)cc3C(F)(F)F)cc2)cccc1[N+](=O)[O-]` gave a melting point of 235 to 236 °C.

Take `CC(Cl)c1nc2cccnc2[nH]1` (configuration not stated): the melting point was determined as 132 °C.

For `CC(=O)Nc1cc(SCC(C)C)ccc1[N+](=O)[O-]`, the melting point lay within 53 to 55 °C.

`Cn1ccnc1COc1nn2c(-c3ccccc3F)nnc2cc1C1CCC1`: the melting point was 173 °C.

In the case of `COC(=O)CCCC#CCn1c(-c2ccccc2)c(-c2ccccc2)n(-c2ccccc2)c1=O`, the melting point was in the range of 133 to 134 °C.

In the case of `COC(=O)C(COc1ccc(Cl)cc1C#N)Oc1ccccc1Cl` (configuration not stated), the melting point came out at 105 °C.

For the compound `COc1ccc2c(c1)C(=O)c1c-2c(Cl)nc2ccc(F)cc12`, the melting point is 149 to 150 °C.

The compound `Cc1nc(-n2cc(Cc3ccccc3)nn2)sc1C(=O)NCc1ccccc1` showed a melting point of 139 to 141 °C.

As for `ClCC(CCl)(CCl)c1cc(Cl)nnc1Cl`, the melting point was in the range of 111 to 112 °C.

`Nc1nc(-c2ccc(-c3ccccc3)cc2)cn1N`: the melting point was over 280 °C.

As for `CCCc1c(C(=O)NCc2ccc(-c3ccc(O)c(Br)c3)cc2)cnn1-c1ccccc1`, the melting point was 184 to 186 °C.

`NC(=O)N1C(=O)C(C(=O)c2cccs2)c2ncc(Cl)cc21` (configuration not stated) gave a melting point of over 250 °C.

Compound `C=CCN(CC=C)c1nc(NC(=O)C=C(C)C)n2oc(=O)nc2n1` came in with a melting point of 165 to 166 °C.

In the case of `NC(=O)OCCn1cc(C(N)=O)c([N+](=O)[O-])n1`, the melting point lay in the range of 191 to 194 °C.

For `c1ccc(Cn2ncc3c2Cc2cn[nH]c2-3)cc1`, the melting point is 61 to 72 °C.

As for `CN(c1cccc2cc(-c3nccs3)[nH]c12)S(=O)(=O)c1ccsc1COCC(=O)O`, the melting point is 189 °C.

In turn, `COc1ccc(CNC(=O)c2cc([N+](=O)[O-])ccc2N[C@H]2CC[C@@H](OC(C)=O)CC2)cc1OC` gave a melting point of 147 to 148 °C.

Compound `CC(C)(N)c1ccc(-c2nc(Nc3cccc(CCN4CCOCC4)c3)ncc2C#N)cc1` came in with a melting point of 166 to 167 °C.

The compound `CCOC(=O)c1cn(C2CC2)c2nc3cc(Cl)c(F)cc3cc2c1=O` returned a melting point of 256 °C.

`CS(=O)(=O)Nc1cccc(Br)n1` registered a melting point of 90 to 94 °C.

As usually defined, the melting point is the temperature of the solid-liquid transition.
